The text below walks through data of publication PMC7824300, “Expanding the Structural Diversity of DNA Methyltransferase Inhibitors” (Pharmaceuticals, 2020).

Assay [1] has as its target T1, DNMT1 (Homo sapiens, UniProt P26358).
T1 construct: purchased Reaction Biology Corporation (contract screening service)
Put plainly: HotSpot radioisotope methyltransferase assay, DNMT1 (Poly dI-dC substrate). Type of assay: biochemical. The settings on record: for inhibition at 100 µM / relative enzymatic activity of DNMT1 / inhibition of DNMT1: 100 μM compound; for relative enzymatic activity of DNMT1: mean of two measurements ± SD; for inhibition of DNMT1: 100 µM. As to the method:
First, the 10 compounds were tested at a single concentration (100 μM) in duplicate in a biochemical DNMT assay. […] Predicted binding modes for the five compounds were studied using molecular docking, implementing a novel re-scoring algorithm recently developed.
The inhibition of the enzymatic activity of DNMT1, DNMT3B, and DNMT3B/3L was tested using the HotSpot^SM platform for methyltransferase assays available at Reaction Biology Corporation. HotSpot^SM is a low volume radioisotope-based assay that uses tritium-labeled AdoMet (^3H-SAM) as a methyl donor. The test compounds diluted in dimethyl sulfoxide were added using acoustic technology (Echo550, Labcyte) into enzyme/substrate mixture in the nano-liter range. The corresponding reactions were commenced by the addition of ^3H-SAM and incubated at 30°C. Total final methylations on the substrate (Poly dI-dC in DNMT1 assay, and Lambda DNA in DNMT3B; DNMT3B/3L assay) were identified by a filter binding method implemented in Reaction Biology. Data analysis was conducted with Graphed Prism software (La Jolla, CA, USA) for curve fits. Reactions were carried out at 1 μM of SAM. […] The 10 compounds were tested first with DNMT1 and DNMT3B at one 100 μM concentration in duplicate. […] Theaflavin was also tested with DNMT3B and DNMT3B/L in 10-dose IC50 with threefold serial dilution starting at 100 μM.

Assay [2] concerns the target T2, DNMT3B (Homo sapiens, UniProt Q9UBC3).
T2 construct: purchased Reaction Biology Corporation (contract screening service)
The experiment in a line: HotSpot radioisotope methyltransferase assay, DNMT3B (Lambda DNA substrate). The settings on record: for relative enzymatic activity of DNMT3B: mean of two measurements ± SD, 1 μM SAM. Format: biochemical. As to the method: First, the 10 compounds were tested at a single concentration (100 μM) in duplicate in a biochemical DNMT assay. SAH was used as a reference. […] Predicted binding modes for the five compounds were studied using molecular docking, implementing a novel re-scoring algorithm recently developed.
(§1) The inhibition of the enzymatic activity of DNMT1, DNMT3B, and DNMT3B/3L was tested using the HotSpot^SM platform for methyltransferase assays available at Reaction Biology Corporation. HotSpot^SM is a low volume radioisotope-based assay that uses tritium-labeled AdoMet (^3H-SAM) as a methyl donor. The test compounds diluted in dimethyl sulfoxide were added using acoustic technology (Echo550, Labcyte) into enzyme/substrate mixture in the nano-liter range. The corresponding reactions were commenced by the addition of ^3H-SAM and incubated at 30°C. Total final methylations on the substrate (Poly dI-dC in DNMT1 assay, and Lambda DNA in DNMT3B; DNMT3B/3L assay) were identified by a filter binding method implemented in Reaction Biology. Data analysis was conducted with Graphed Prism software (La Jolla, CA, USA) for curve fits. Reactions were carried out at 1 μM of SAM. In all assays, SAH was used as a standard positive control. The 10 compounds were tested first with DNMT1 and DNMT3B at one 100 μM concentration in duplicate. […] Theaflavin was also tested with DNMT3B and DNMT3B/L in 10-dose IC50 with threefold serial dilution starting at 100 μM. The authors have previously contracted the screening services of Reaction Biology Corporation to identify a novel inhibitor of DNMT1 [24].

Assay [3] concerns U373MG cell line. The settings on record: read-out: IC50 for U373MG cell line; human glioblastoma cell line harboring inactive mutant p53; cited from earlier work.
Assay [4] concerns A549 cell line. The settings on record: read-out: IC50 for A549 cell line; human lung cancer cell line harboring wild-type p53; cited from earlier work.
The test system of assay [5] is Hut78 cell line. The settings on record: read-out: IC50 for Hut78 cell line; cutaneous T cell lymphoma; cited from earlier work.
For assay [6], the target named is T3, DNMT3B/3L (Homo sapiens, UniProt Q9UBC3).
T3 construct: purchased Reaction Biology Corporation (contract screening service)
The experiment in a line: HotSpot radioisotope methyltransferase assay, DNMT3B/3L (Lambda DNA substrate). Format: biochemical. The settings on record: 10-dose, threefold serial dilution starting at 100 μM. As to the method:
as §1

Assay [7] addresses viral NS5 RNA methyltransferase. Also noted: method as in PMID 20108931. The settings on record: cited from earlier work.
Assay [8] has the same target. Also noted: method as in PMID 20108931. The settings on record: cited from earlier work. The source holds these as a separate data set.
[9] abbreviates: Table 3, read-out: % Inhibition (DNMT1).
[10] abbreviates: rounded values, read-out: inhibition of DNMT1.
[11] abbreviates: 10-dose, threefold serial dilution starting at 100 μM, 1 μM SAM, mean of two measurements, read-out: DNMT1 IC50.
[12] abbreviates: 100 μM compound, rounded values.

Read-outs that look alike come from different tables or passages of the source.

T1 sequence (P26358 whole entry): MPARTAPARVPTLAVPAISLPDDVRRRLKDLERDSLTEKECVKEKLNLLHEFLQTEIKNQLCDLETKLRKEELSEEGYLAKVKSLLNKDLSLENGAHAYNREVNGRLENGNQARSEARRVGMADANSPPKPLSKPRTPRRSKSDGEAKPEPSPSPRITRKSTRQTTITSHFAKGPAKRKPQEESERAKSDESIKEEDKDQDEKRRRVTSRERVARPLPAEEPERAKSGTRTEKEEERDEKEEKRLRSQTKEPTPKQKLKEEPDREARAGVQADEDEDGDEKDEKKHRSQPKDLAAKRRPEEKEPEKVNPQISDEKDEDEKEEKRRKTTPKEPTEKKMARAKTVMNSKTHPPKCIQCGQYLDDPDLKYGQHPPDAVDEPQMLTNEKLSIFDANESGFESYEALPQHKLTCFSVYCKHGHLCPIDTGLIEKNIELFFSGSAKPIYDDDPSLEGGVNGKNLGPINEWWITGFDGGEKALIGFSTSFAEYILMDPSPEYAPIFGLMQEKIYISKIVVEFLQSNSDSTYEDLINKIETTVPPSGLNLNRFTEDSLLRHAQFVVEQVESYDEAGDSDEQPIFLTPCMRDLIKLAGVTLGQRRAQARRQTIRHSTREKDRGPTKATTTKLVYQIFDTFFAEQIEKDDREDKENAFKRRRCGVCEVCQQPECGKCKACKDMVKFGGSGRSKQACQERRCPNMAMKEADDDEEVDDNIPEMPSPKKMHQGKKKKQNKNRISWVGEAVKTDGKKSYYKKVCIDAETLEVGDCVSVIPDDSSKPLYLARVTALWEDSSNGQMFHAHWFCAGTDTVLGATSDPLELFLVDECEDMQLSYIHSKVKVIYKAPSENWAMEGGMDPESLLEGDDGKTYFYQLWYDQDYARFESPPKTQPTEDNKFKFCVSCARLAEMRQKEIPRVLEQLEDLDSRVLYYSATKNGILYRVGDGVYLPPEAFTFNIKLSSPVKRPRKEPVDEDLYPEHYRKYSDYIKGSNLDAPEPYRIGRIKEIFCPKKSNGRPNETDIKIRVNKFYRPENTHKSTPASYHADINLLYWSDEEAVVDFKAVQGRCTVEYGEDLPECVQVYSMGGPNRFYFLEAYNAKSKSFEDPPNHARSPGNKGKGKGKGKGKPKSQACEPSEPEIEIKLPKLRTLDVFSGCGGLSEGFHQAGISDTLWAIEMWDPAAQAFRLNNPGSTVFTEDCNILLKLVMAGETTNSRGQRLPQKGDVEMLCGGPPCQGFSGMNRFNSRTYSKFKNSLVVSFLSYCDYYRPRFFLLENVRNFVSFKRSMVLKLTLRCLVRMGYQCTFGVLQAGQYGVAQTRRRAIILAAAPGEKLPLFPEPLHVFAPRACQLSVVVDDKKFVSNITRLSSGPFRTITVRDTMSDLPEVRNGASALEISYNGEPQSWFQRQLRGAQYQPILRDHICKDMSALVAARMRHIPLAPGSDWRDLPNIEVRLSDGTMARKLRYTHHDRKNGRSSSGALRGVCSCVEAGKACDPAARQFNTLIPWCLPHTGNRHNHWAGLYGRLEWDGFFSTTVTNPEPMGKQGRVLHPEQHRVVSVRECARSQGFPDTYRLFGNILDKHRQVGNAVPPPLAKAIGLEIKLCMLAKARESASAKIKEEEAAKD

`Cc1ccnc2nc(C(=O)Nc3nc(-c4ccc5c(c4)OCO5)cs3)nn12` [CSC026286840]: the inhibition at 100 µM in assay [1] (setting [9]) was 26.6%; in assay [1] (setting [10]), 27%. In addition, the “relative enzymatic activity of DNMT1” value in assay [1] (1 μM SAM) was 73.45 (±3.06) %. Besides, the “inhibition of DNMT1” value in assay [1] (rounded values) was 30%. Further, the “relative enzymatic activity of DNMT3B” value in assay [2] (100 μM compound) is 90.59 (±2.49) %.
With `O=C(O)c1ccc(NS(=O)(=O)c2ccc(N3CCCC3=O)cc2)cc1` [CSC027083851], the inhibition at 100 µM in assay [1] (setting [9]) was -5.71%. Moreover, the “relative enzymatic activity of DNMT1” value in assay [1] (1 μM SAM) is 105.71 (±1.27) %. Further, the “relative enzymatic activity of DNMT3B” value in assay [2] (100 μM compound) was 97.85 (±5.66) %.
`Cc1cc(NC(=O)CN2CCN(c3cc(C(N)=O)c4ccccc4n3)CC2)no1` [CSC027480404]: the inhibition at 100 µM in assay [1] (setting [9]) came to 30%; in assay [1] (setting [10]), 29%. Further, in assay [1] (1 μM SAM), the “relative enzymatic activity of DNMT1” value is reported as 70.63 (±0.19) %. The “inhibition of DNMT1” value in assay [1] (rounded values) is listed as 30%. The “relative enzymatic activity of DNMT3B” value in assay [2] (100 μM compound) is recorded as 96.39 (±0.28) %.
In the case of `Cc1cc(NCc2nnc(Cc3ccccc3)o2)ccc1C(N)=O` [CSC027694519], the values for the inhibition at 100 µM in assay [1] (setting [9]) and in assay [1] (setting [10]) were 64.6% and 65%, respectively. In addition, the “relative enzymatic activity of DNMT1” value in assay [1] (1 μM SAM) is 35.42 (±1.78) %. For the same compound, the IC50 in assay [1] (setting [11]) came out at 85.1 µM. Moreover, the “relative enzymatic activity of DNMT3B” value in assay [2] (100 μM compound) is recorded as 97.42 (±2.49) %.
Consider `CC(C)(CC(=O)Nc1cccc(Cn2cccn2)c1)C(=O)O` [CSC027796832], for which the inhibition at 100 µM in assay [1] (setting [9]) was -7.25%. In assay [1] (1 μM SAM), the “relative enzymatic activity of DNMT1” value is given as 107.25 (±0.59) %. Besides, in assay [2] (100 μM compound), the “relative enzymatic activity of DNMT3B” value was 95.28 (±0.47) %.
In the case of `COc1ccc(Cl)cc1C(=O)NCCc1ccc(S(=O)(=O)NC(=O)NC2CCCCC2)cc1` [Glyburide, reference compound], the inhibition at 100 µM in assay [1] (setting [9]) and in assay [1] (setting [10]) was 60% each time. Further, the “relative enzymatic activity of DNMT1” value in assay [1] (1 μM SAM) is listed as 40.04 (±0.78) %. Also, in assay [1] (setting [11]), the IC50 was determined as 55.9 µM. The “relative enzymatic activity of DNMT3B” value in assay [2] (100 μM compound) is listed as 95.97 (±4.76) %.
On to `NNc1nncc2ccccc12` [Hydralazine], for which the IC50 was 20 µM in assay [3], 2 µM in assay [4] and 30 µM in assay [5].
As for `Cc1[nH]c2ccccc2c1CCNCc1ccc(/C=C/C(=O)NO)cc1` [Panobinostat, reference compound], the inhibition at 100 µM turned out to be 62.7% in assay [1] (setting [9]) and 63% in assay [1] (setting [10]).
Consider `O=c1c(O)cc([C@H]2Oc3cc(O)cc(O)c3C[C@H]2O)cc2c([C@H]3Oc4cc(O)cc(O)c4C[C@H]3O)cc(O)c(O)c12` [Theaflavin], for which the IC50 is above 100 µM in assay [6]; 85.3 µM in assay [1] (setting [11]); above 100 µM in assay [2] (10-dose, threefold serial dilution starting at 100 μM). In addition, the values for the inhibition at 100 µM in assay [1] (setting [9]), in assay [1] (setting [10]) and in assay [2] (setting [12]) were 65.4%, 65% and 33%, respectively. For the same compound, the “relative enzymatic activity of DNMT1” value in assay [1] (1 μM SAM) is 34.62 (±0.06) %. The “relative enzymatic activity of DNMT3B” value in assay [2] (100 μM compound) is 66.75 (±1.11) %.
For the compound `COc1ccc(S(=O)(=O)Nc2c(C)n(C)n(-c3ccccc3)c2=O)cc1C(=O)O` [compound 6631802], the inhibition at 100 µM in assay [1] (setting [9]) was determined as 6.74%. The “relative enzymatic activity of DNMT1” value in assay [1] (1 μM SAM) was 93.26 (±7.97) %. Further, in assay [2] (100 μM compound), the “relative enzymatic activity of DNMT3B” value is 93.54 (±0.54) %.
In the case of `Cc1ccc(Cl)cc1NS(=O)(=O)c1ccc(NS(=O)(=O)c2ccc3ccccc3c2)cc1` [compound 7936171], the IC50 in assay [7] is 64.2 µM; in assay [1] (setting [11]) it was 78.5 µM; in assay [1] (-log value of the IC50, read-out: pIC50 (DNMT1) (converted)) it was 77.6 µM. For the same compound, the EC50 in assay [8] was 12 µM. Also, the results for the inhibition at 100 µM in assay [1] (setting [9]), in assay [1] (setting [10]) and in assay [2] (setting [12]) were 62.3%, 62% and 22%, respectively. Besides, the “relative enzymatic activity of DNMT1” value in assay [1] (1 μM SAM) is on record as 37.74 (±2.15) %. Further, the “relative enzymatic activity of DNMT3B” value in assay [2] (100 μM compound) is 78.20 (±0.30) %. The “inhibition of DNMT3B” value in assay [2] (100 μM compound, rounded values, listed as naphthalene sulfonamide, 100 µM) is reported as “higher than 20%”.

As a reminder, the inhibition is the drop in the measured response relative to a control, in per cent. A word on the EC50: it is the concentration that produces a half-maximal response.
